Starred links: 1 amine or outer side, 2 acyl side, 3 side chain; linkers in the order of their positions; H or OH if unused. Non-standard residues stand in square brackets, D forms with d. Groups on a side chain read outwards from the residue. Primed or numbered codes have the meaning given here. No end group written: not given here. *: point of attachment. C18 diacid = O=C(O)CCCCCCCCCCCCCCCCC(=O)*; γGlu = O=C(O)[C@H](CCC(=O)[*:2])N[*:1]; Stearoyl = CCCCCCCCCCCCCCCCCC(=O)*; Palmitoyl = CCCCCCCCCCCCCCCC(=O)*; PEG2′ = not defined here; Aib = CC(C)(N)C(=O)O
Legend:
[1] = test system: Hepatic stellate cell strain LX-2; test: In vitro effect on expression of LX-2 cell activation marker α-SMA (Western Blot, β-actin reference); format: cell-based; settings: LX-2 cells, 10.0 uM, 48 hours, negative control = 100%
Text: Hepatic stellate cell strain LX-2 (from China Center for Type Culture Collection, Shanghai) was selected to study and observe the effects of polypeptide compounds 1-25 on the expression level of LX-2 cell activation marker α-smooth muscle actin (α-SMA). The control group was given the same volume of Dulbecco’s modified Eagle medium (DMEM) (from Gibco, United States), and β-actin (from TransGen Biotech) as the endogenous reference, wherein, α-SMA is a symbolic feature that distinguishes […] from myofibroblasts.
Hepatic stellate cell LX-2 was laid on 35 mm cell culture plate, cultured with DMEM (high glucose)+10% FBS+1% double-antibody culture medium (Thermo Fisher), placed overnight when the cells grew to 70% convergence at 37° C. under the condition of 5% CO2 without serum, and treated with the above GLP-1R/GCGR dual target agonist polypeptide derivatives (namely, polypeptide compounds 1-25) (dissolved in PBS) for 48 hours from the next morning to extract cell protein, and then Western Blot was performed with β-actin as endogenous reference to analyze the expression levels of α-SMA and β-actin by gray-scale analysis using Image J 1.50i. PBS with the same volume as that in experimental group was added in negative control.
The above polypeptide compounds 1-25 with a concentration of 10.0 µM were added, showing that they could reduce the expression of α-SMA at the concentration of 10.0 µM; and the negative control had no effect on the expression of α-SMA (referring to Table 2).
The integrated gray scale of α-SMA/β-actin in the negative control group was considered to be 100% to analyze the in vitro inhibitory activity on hepatic fibrosis by tested polypeptides.

[2] = test system: HBV-infected humanized mouse liver; test: Hepatic fibrosis of HBV-infected humanized mouse (hepatitis virus-infected humanized mouse fibrosis model); format: in vivo; settings: 40 ug/Kg, intraperitoneal injection, once every other day for 3 weeks; for Accumulation of collagen fibers (FG/SR staining of liver) / Hepatic fibrosis and inflammation level (FG/SR and H&E staining of liver): compared with control group without administration; for Serum ALT: versus before administration
Experimental: In order to study the effect of the polypeptide compounds of the present invention in hepatic fibrosis associated with viral hepatitis, the polypeptide compounds of the present invention were used for hepatic fibrosis of HBV-infected humanized mouse. […] The specific steps are shown as follows:
Forty newborn NOD-scid IL-2Rγ-/- (NIKO) mice were bred.
These mice were injected with human stem cells for humanization (2 weeks).
Referring to FIG. 10, blood samples were taken to determine the humanization level by flow cytometry. All the mice used in the experiment expressed humanization according to in vivo concentrations of CD4 and CD8.
The mice were divided into 8 groups, fed with high-fat diet and infected with HBV (1 week).
The development of fibrosis in mice was monitored (8-10 weeks).
The polypeptide compounds 2, 5, 11, 15, 20, 23 and 25 were selected, which were stored at -20° C.
The above 40 mice were divided into 8 groups for injection treatment, with grouping and injection administration as follows: blank model control group (CTR), physiological saline, intraperitoneal injection, n=5. • 1) Administration group, polypeptide compound 2, 40 ug/Kg, intraperitoneal injection, n=5. • 2) Administration group, polypeptide compound 5, 40 ug/Kg, intraperitoneal injection, n=5. • 3) Administration group, polypeptide compound 11, 40 ug/Kg, intraperitoneal injection, n=5. • 4) Administration group, polypeptide compound 15, 40 ug/Kg, intraperitoneal injection, n=5. • 5) Administration group, polypeptide compound 20, 40 ug/Kg, intraperitoneal injection, n=5. • 6) Administration group, polypeptide compound 23, 40 ug/Kg, intraperitoneal injection, n=5. • 7) Administration group, polypeptide compound 25, 40 ug/Kg, intraperitoneal injection, n=5.
They were injected once every other day for 3 weeks.
After 3 weeks of administration, the mice were sacrificed to take samples for subsequent bioassay experiments. The serum samples from the mice were used for ALT and human IFNγ tests. Paraffin sections were prepared from partial liver tissues of the mice and stained with hematoxylin-eosin (H&E), […]/Sirius red (FG/SR) and immunohistochemical fluorescence (α-SMA), and statistics were made with Image-pro plus, Graph pad and similar software.
In the HBV induced hepatic fibrosis model, its characteristics are: inflammatory cell infiltration around the central vein area, hydropic degeneration of hepatocytes, and increased accumulation of collagen fibers in the portal area and the hepatic interlobular septum. After 3 weeks of administration, the mice were sacrificed to take samples. Blood was taken from the retrobulbar vein for detection of serological indicators, and liver tissues were taken for pathological analysis.

Row | Substance | Relative expression of α-SMA (α-SMA/β-actin, %) [1] | α-SMA expression in liver tissues (IF staining) [2] | Accumulation of collagen fibers (FG/SR staining of liver) [2] | Hepatic fibrosis and inflammation level (FG/SR and H&E staining of liver) [2] | Serum ALT [2]
1 | His-(D-Ser)-Gln-Gly-Thr-Phe-Thr-Ser-Asp-Tyr-Ser-Lys-Tyr-Leu-Asp-Glu-Lys(PEG2-PEG2-γGlu-CO(CH2)16CO2H)-Arg- Ala-Gln-Asp-Phe-Val-Gln-Trp-Leu-Met-Asn-Thr-Gly-Gly-Pro-Ser-Ser-Gly-Ala-Pro-Pro-Pro-Ser-NH2 (H[dS]QGTFTSDYSKYLDEK([PEG2′-PEG2′-γGlu-C18 diacid])RAQDFVQWLMNTGGPSSGAPPPS-NH2) [Compound 2] | 34.65% | significantly inhibited | significantly inhibited the accumulation of collagen fibers | decreased the hepatic fibrosis and inflammation level | decreased from that before administration
2 | His-(D-Ser)-Gln-Gly-Thr-Phe-Thr-Ser-Asp-Tyr-Ser-Lys-Tyr-Leu-Asp-Glu-Lys-Ala-Ala-Lys(PEG2-PEG2-yGlu- CO(CH2)16CH3)-Glu-Phe-Ile-Glu-Trp-Leu-Leu-Arg-Gly-Gly- Gly-Pro-Ser-Ser-Gly-Ala-Pro-Pro-Pro-Ser-NH2 (H[dS]QGTFTSDYSKYLDEKAAK([PEG2′-PEG2′-γGlu-Stearoyl])EFIEWLLRGGGPSSGAPPPS-NH2) [Compound 11] | 35.78% | significantly inhibited | significantly inhibited the accumulation of collagen fibers | decreased the hepatic fibrosis and inflammation level | decreased from that before administration
3 | His-(D-Ser)-Gln-Gly-Thr-Phe-Thr-Ser-Asp-Tyr-Ser-Lys-Tyr-Leu-Asp-Glu-Lys-Ala-Ala-Lys(PEG2-PEG2-γGlu- CO(CH2)14CH3)-Glu-Phe-Ile-Glu-Trp-Leu-Leu-Asn-Gly-Gly- Gly-Pro-Ser-Ser-Gly-Ala-Pro-Pro-Pro-Ser-NH2 (H[dS]QGTFTSDYSKYLDEKAAK([PEG2′-PEG2′-γGlu-Palmitoyl])EFIEWLLNGGGPSSGAPPPS-NH2) [Compound 15] | 37.25% | significantly inhibited | significantly inhibited the accumulation of collagen fibers | decreased the hepatic fibrosis and inflammation level | decreased from that before administration
4 | His-(D-Ser)-Gln-Gly-Thr-Phe-Thr-Ser-Asp-Tyr-Ser-Lys-Tyr-Leu-Asp-Lys(PEG2-PEG2-CO(CH2)14CH3)-Arg-Arg-Ala-Gln- Asp-Phe-Val-Gln-Trp-Leu-Leu-Asn-Thr-Gly-Gly-Pro-Ser-Ser-Gly-Ala-Pro-Pro-Pro-Ser-NH2 (H[dS]QGTFTSDYSKYLDK([PEG2′-PEG2′-Palmitoyl])RRAQDFVQWLLNTGGPSSGAPPPS-NH2) [Compound 25] | 39.17% | significantly inhibited | significantly inhibited the accumulation of collagen fibers | decreased the hepatic fibrosis and inflammation level | decreased from that before administration
5 | His-(D-Ser)-Gln-Gly-Thr-Phe-Thr-Ser-Asp-Tyr-Ser-Lys-Tyr-Leu-Asp-Lys(PEG2-PEG2-yGlu-CO(CH2)14CH3)-Arg-Arg-Ala- Gln-Asp-Phe-Val-Gln-Trp-Leu-Nle-Asn-Thr-Gly-Gly-Pro-Ser-Ser-Gly-Ala-Pro-Pro-Pro-Ser-NH2 (HXQGTFTSDYSKYLDKRRAQDFVQWLXNTGGPSSGAPPPS; D-Ser; Nle; PEG2-PEG2-γGlu-palmitoyl lipidation; C-terminal amide; (2)..(2) Xaa=D-Ser; (16)..(16) A side chain of Lys is linked to -PEG2-PEG2-AGlu-CO(CH2)14CH3; (27)..(27) Xaa=Nle) [Compound 20] | 32.58% | significantly inhibited | significantly inhibited the accumulation of collagen fibers | decreased the hepatic fibrosis and inflammation level | decreased from that before administration
6 | His-(D-Ser)-Gln-Gly-Thr-Phe-Thr-Ser-Asp-Tyr-Ser-Lys-Tyr-Leu-Asp-Lys(PEG2-PEG2-γGlu-CO(CH2)14CH3)-Arg-Arg-Ala- Gln-Asp-Phe-Val-Gln-Trp-Leu-Leu-Asn-Thr-Gly-Gly-Pro-Ser-Ser-Gly-Ala-Pro-Pro-Pro-Ser-NH2 (H[dS]QGTFTSDYSKYLDK([PEG2′-PEG2′-γGlu-Palmitoyl])RRAQDFVQWLLNTGGPSSGAPPPS-NH2) [Compound 23] | 36.15% | significantly inhibited | significantly inhibited the accumulation of collagen fibers | decreased the hepatic fibrosis and inflammation level | decreased from that before administration
7 | His-Aib-Gln-Gly-Thr-Phe-Thr-Ser-Asp-Lys(PEG2-PEG2-yGlu- CO(CH2)16CO2H)-Ser-Lys-Tyr-Leu-Asp-Glu-Arg-Arg-Ala- Gln-Asp-Phe-Val-Gln-Trp-Leu-Leu-Asp-Gly-Gly-Gly-Pro-Ser-Ser-Gly-Ala-Pro-Pro-Pro-Ser-NH2 (H[Aib]QGTFTSDK([PEG2′-PEG2′-γGlu-C18 diacid])SKYLDERRAQDFVQWLLDGGGPSSGAPPPS-NH2) [Compound 5] | 37.04% | significantly inhibited | significantly inhibited the accumulation of collagen fibers | decreased the hepatic fibrosis and inflammation level | decreased from that before administration

From US20230364194A1, “GLP-1R/GCGR Dual Target Agonist Polypeptide Derivative for Treatment of Hepatic Fibrosis Associated with Viral Hepatitis” (Shenzhen Turier Biotech. Co., Ltd., priority 2020, published 2023)
